Tests used:
[1] = biological target: rabbit polyclonal anti-DNP IgG; test: Fluorescence polarization binding of DNP and NBD derivatives to anti-DNP IgG; conditions: apparent affinity, PBS pH 7.4, read-out: dissociation constants (Kd)
Jurkat lymphocytes [2] = test: Antibody uptake assay and uptake kinetics (flow cytometry); assay type: cell-based, human; conditions: for efficiency as mediator of ligand (IgG) uptake: anti-DNP/PrA-AF488, flow cytometry
Procedure: Antibody uptake assays (FIG. 8, Panels A-B, FIG. 10, and FIG. 11). Synthetic receptors 2-9 in DMSO were diluted in RPMI media (0.5 mL, final DMSO concentration=1%) containing Jurkat lymphocytes (1×10^6). These receptor-treated cells were incubated at 37° C. for 1 h, washed with RPMI media (2×0.5 mL) to remove unincorporated receptors/DMSO, and resuspended in fresh media (89 μL). To these cells was added a pre-equilibrated complex (preincubated at 23° C. for 1 h) of anti-DNP IgG (9.6 μg) and the PrA-Alexa Fluor conjugate (PrA-AF488 or PrA-AF633, 3 μg) in phosphate-buffered saline (11 μL, pH 7.4, total volume=100 μL). Cells were typically maintained at 37° C. for 4 h to promote synthetic receptor-mediated endocytosis. Prior to analysis, treated cells were washed with media (0.5 mL), washed again with media containing 6-(2,4-dinitrophenyl)aminohexanoic acid (100 μM, 3×0.5 mL×20 min, 1% DMSO) to compete away any non-internalized protein, washed again with media (0.5 mL), and resuspended in media (0.6 mL) for analysis by epifluorescence microscopy, confocal microscopy, or flow cytometry.
Antibody uptake kinetics (FIG. 8, Panel C). To determine the relative uptake rates shown on the left of FIG. 8C, Jurkat lymphocytes were subjected to the antibody uptake assay (cells were treated with receptors 2-5 at 10 μM for 1 h followed by addition of a pre-equilibrated complex (preincubated at 23° C. for 1 h) of anti-DNP-IgG/PrA-AF488 for 15 min to 4 h) and internalized cellular fluorescence was quantified by flow cytometry. […] Observed rates of ligand uptake (kobs) were calculated with a Michaelis-Menten kinetic model assuming saturating concentrations of substrate (kobs=(Ft−F0)/t). t=time (in minutes), Ft=fluorescence at the specified time, and F0=fluorescence at time=0 min. The slope of plots of fluorescence vs. time provided kobs values that were divided by the basal rate of endocytosis (no receptor) to determine the relative rates of uptake.
These cells were washed with ice-cold media (500 μL) and maintained at 4° C. A pre-equilibrated (1 h at 23° C.) ice-cold solution of RPMI media (100 μL) containing anti-DNP-IgG (7.2 μg) and PrA-AF488 (2 μg) was added. After 1 h at 4° C., the cells were washed with ice-cold RPMI media (2×500 μL). Cells were equilibrated at 37° C. for 20 min prior to fluorescence measurements to dissociate excess surface-bound antibody. After equilibration, uptake experiments were initiated (this was defined as t=0 min). Cells were subsequently incubated at 37° C. for fixed periods of time (0 to 3 h), cooled to 4° C. on ice, and washed with ice-cold RPMI media containing 6-(2,4-dinitrophenyl)aminohexanoic acid (100 μM, 1% DMSO, 3×0.5 mL×10 min at 4° C. followed by 2×0.5 mL×20 min at 23° C.) to remove non-internalized IgG. Intracellular fluorescence was quantified by flow cytometry. Cell surface fluorescence was calculated by subtracting this intracellular fluorescence from cellular fluorescence measured at t=0 min (after the initial equilibration at 37° C. for 20 min; the competition with 6-(2,4-dinitrophenyl)aminohexanoic acid was omitted to analyze this cellular fluorescence).
Synthetic receptors were evaluated as mediators of cellular uptake of protein ligands in living Jurkat lymphocytes, a human T cell line. Confocal laser scanning microscopy and flow cytometry were employed to analyze cells treated with compounds 2-9 for 1 hour followed by addition of anti-DNP IgG complexed with fluorescent conjugates of the IgG-binding protein A (PrA) from S. aureus. […] (FIG. 9, Panel A). This intracellular red fluorescence was 59-fold lower in the absence of receptor 6 consistent with a synthetic receptor-mediated uptake mechanism. The IgG-loaded intracellular compartments were identified as late endosomes and lysosomes by co-localization studies in cells transfected with EGFP-lgp120, a fluorescent protein marker of these compartments.

Jurkat lymphocytes [3] = test: Cellular stability (cell surface half-life) of receptor; assay type: cell-based, human; conditions: 10 μM receptor 1 h, detected with anti-DNP/PrA-AF488
Procedure: Quantification of the cellular stability of receptor 2 (FIG. 9, Panel C). Jurkat lymphocytes (1×10^7) were incubated with receptor 2 in media (5 mL, 10 μM receptor, 1% DMSO) for 1 h at 37° C. in a 15 mL aerated centrifuge tube. Cells were washed with media (2×5 mL) to remove unincorporated receptor, resuspended in media (10 mL), transferred 2) to a tissue culture flask (25 cm^2), and maintained at 37° C. At fixed time points, an aliquot of this culture (1 mL) was removed from the flask and cells isolated by centrifugation. These cells were resuspended in media (89 μL) and a pre-equilibrated (23° C. for 1 h) complex of anti-DNP IgG (9.6 μg) and PrA488 (3 μg) in phosphate buffered saline (PBS, 11 μL, pH 7.4) was added for 5 min at 37° C. Treated cells were centrifuged (1300 g for 2 min), the supernatant was removed, cells were resuspended in media (0.5 mL), and cellular fluorescence was analyzed by flow cytometry. […]
To evaluate the temporal stability of receptor 2 on the cell surface, the half-life of this compound on Jurkat lymphocytes was quantified by addition of a soluble antibody. Cells were treated with this receptor for 1 hour (10 μM), unincorporated receptor was removed by washing cells with fresh media, and the abundance of 2 as a function of time was detected with a green fluorescent anti-DNP/PrA-AF488 complex.

Jurkat lymphocytes [4] = test: Efflux kinetics from endosomes to plasma membrane by back exchange; assay type: cell-based, human
Procedure: FIG. 11. Quantification of efflux kinetics of receptor 10 from endosomes to the plasma membrane of Jurkat lymphocytes by back exchange. Cells treated with 10 (1 μM, 1 hour) were cooled to 4° C. and cell surface fluorophores removed (>90%) by repeated washing with ice-cold back exchange media containing BSA (1%) and methyl-β-cyclodextrin (2 mM). Cells were resuspended in back exchange media at 37° C. to resume recycling, cellular fluorescence was quantified by flow cytometry, and loss of fluorescence was evaluated with a one-site exponential decay model.
Quantification of efflux kinetics of receptor 10 from endosomes to the plasma membrane by back exchange (FIG. 11). The efficiency of removal of 10 from the plasma membrane was examined prior to analysis of efflux kinetics. Jurkat lymphocytes (3×10^6) were suspended in ice-cold serum free recycling media (1.5 mL) and maintained on ice (2 min) to block plasma membrane recycling. These cells were resuspended in ice-cold serum free recycling media (1.5 mL, 1% DMSO) containing 10 (1 μM) and maintained on ice (10 min) to allow association of 10 with the plasma membrane. Receptor-treated cells were washed with ice-cold serum free recycling media (2×0.5 mL), resuspended in ice-cold serum free recycling media (1.5 mL), and analyzed by flow cytometry.
These cells were washed with serum free recycling media (2×1 mL) to remove unincorporated receptor (10). These receptor-treated cells were cooled on ice (5 min) to halt recycling and washed with ice-cold back-exchange media (6×1.5 mL×10 min) to selectively remove 10 from the cell surface without affecting the population of 10 in intracellular endosomes. These cells were resuspended in warm back exchange media (37° C., 1.5 mL) to initiate plasma membrane recycling and immediately analyzed by flow cytometry (defined as t=0 min). Cells were isolated by centrifugation, resuspended in warm back exchange media (1.5 mL, 37° C.), incubated at 37° C., and analyzed by flow cytometry as a function of time.
To quantify the rate of plasma membrane recycling, oregon green-derived receptor 10 was employed. Unlike the more strongly cell-associated DNP and NBD-based receptors, the compound 10 binds proteins in cell culture media and can be rapidly and efficiently depleted from cell surfaces by washing cells with “back exchange” media containing bovine serum albumin (BSA, 1%) and methyl-beta-cyclodextrin (Me-beta-CD, 2 mM). This concentration of Me-beta-CD is known to affect neither endocytosis nor plasma membrane recycling. The oregon green-fluorophore of 10 was also chosen for these studies because unlike structurally similar carboxydifluorescein the fluorescence of oregon green is not appreciably quenched in acidic environment of endosomal compartments. […]

[5] = test system: mouse J-774 cells and human HeLa cells; test: Flow cytometric analysis of cellular uptake of fluorescent vancomycin 2; assay type: cell-based
Procedure: FIG. 18. Flow cytometric analysis of cellular uptake of fluorescent vancomycin 2 promoted by synthetic receptor 3 and control compounds. Preload conditions: Receptor 3 or analogues (4, 5) were added to cells for 1 h to load the plasma membrane, cells were washed, and 2 (3 μM) was added for 4 h. Premix conditions: Receptor 3 or analogues (4, 5) were preequilibrated with 2 (3 μM) at 23° C. for 1 h followed by addition of this mixture to cells for 4 h.
The dose-dependent effectiveness of delivery of 2 into mouse J-774 cells and human HeLa cells mediated by […] was examined quantitatively by flow cytometry.

[6] = read-out: affinity for vancomycin (Kd); cited from earlier work
[7] = 10 μM receptor for 1 hour, anti-DNP/PrA-AF488

## 6-(7-nitrobenzofuran-4-ylamino)hexanoic acid [compound 28, reference compound]
[1]
  Kd: 0.82 ± 0.144 µM

## O=C(CCCCCNc1ccc([N+](=O)[O-])cc1[N+](=O)[O-])NCCCNC(=S)Nc1ccc(-c2c3ccc(=O)cc-3oc3cc(O)ccc23)c(C(=O)O)c1 [compound 27]
[1]
  Kd: 0.023 ± 0.0015 µM

## CC(C)CCC[C@@H](C)[C@H]1CC[C@H]2[C@@H]3CC=C4C[C@@H](NCCCNC(=O)CCNC(=O)CCNC(=O)CCCCCNc5ccc([N+](=O)[O-])cc5[N+](=O)[O-])CC[C@]4(C)[C@H]3CC[C@]12C [receptor 2, N-(3-{[3-({3-[(3β)-cholest-5-en-3-ylamino]propyl}amino)-3-oxopropyl]amino}-3-oxopropyl)-6-[(2,4-dinitrophenyl)amino]hexanamide]
Jurkat lymphocytes [2]; [7]
  enhancement of cellular uptake of anti-DNP IgG in magnitude compared with basal levels of endocytosis: 208 fold
  enhancement of cellular uptake of anti-DNP IgG in rate compared with basal levels of endocytosis: 391 fold
Jurkat lymphocytes [2]
  efficiency as mediator of ligand (IgG) uptake: by far the most efficient
Jurkat lymphocytes [2]; receptor at 1 μM, anti-DNP-IgG/PrA-AF488, 37° C.
  rate of uptake (k): 0.007327 ± 0.000006 min⁻¹
Jurkat lymphocytes [2]; receptor at 1 μM, calculated as (ln 2)/k
  ligand internalization half-life (t1/2): 1.58 h
Jurkat lymphocytes [3]
  cell surface half-life: 20 h

## CC(C)CCC[C@@H](C)[C@H]1CC[C@H]2[C@@H]3CC=C4C[C@@H](NCCCNC(=O)CCNC(=O)CCCCCNc5ccc([N+](=O)[O-])cc5[N+](=O)[O-])CC[C@]4(C)[C@H]3CC[C@]12C [receptor 3, N-[3-({3-[(3β)-cholest-5-en-3-ylamino]propyl}amino)-3-oxopropyl]-6-[(2,4-dinitrophenyl)amino]hexanamide]
Jurkat lymphocytes [2]
  efficiency as mediator of ligand (IgG) uptake: dramatically diminished the effectiveness

## CC(C)CCC[C@@H](C)[C@H]1CC[C@H]2[C@@H]3CC=C4C[C@@H](NCCCNC(=O)CCCCCNc5ccc([N+](=O)[O-])cc5[N+](=O)[O-])CC[C@]4(C)[C@H]3CC[C@]12C [receptor 4, N-{3-[(3β)-cholest-5-en-3-ylamino]propyl}-6-[(2,4-dinitrophenyl)amino]hexanamide]
Jurkat lymphocytes [2]
  efficiency as mediator of ligand (IgG) uptake: dramatically diminished the effectiveness

## CC(C)CCC[C@@H](C)[C@H]1CC[C@H]2[C@@H]3CC=C4C[C@@H](NC(=O)CCNC(=O)CCCCCNc5ccc([N+](=O)[O-])cc5[N+](=O)[O-])CC[C@]4(C)[C@H]3CC[C@]12C [receptor 5, N-{3-[(3β)-cholest-5-en-3-ylamino]-3-oxopropyl}-6-[(2,4-dinitrophenyl)amino]hexanamide]
Jurkat lymphocytes [2]
  efficiency as mediator of ligand (IgG) uptake: essentially abolished internalization of IgG
Jurkat lymphocytes [2]; at 10 μM
  reduction of IgG delivery relative to receptor 4 (secondary amine converted to secondary amide): over 50 fold

## CC(C)CCC[C@@H](C)[C@H]1CC[C@H]2[C@@H]3CC=C4C[C@@H](NCCCNC(=O)CCNC(=O)CCNC(=O)CCCCCNc5ccc([N+](=O)[O-])c6nonc56)CC[C@]4(C)[C@H]3CC[C@]12C [receptor 6, N-(3-{[3-({3-[(3β)-cholest-5-en-3-ylamino]propyl}amino)-3-oxopropyl]amino}-3-oxopropyl)-6-(7-nitrobenzofurazan-4-ylamino)hexanamide]
Jurkat lymphocytes [2]; 10 μM receptor, red fluorescent anti-DNP IgG/PrA
  intracellular red fluorescence lower in the absence of receptor: 59 fold

## CC(C)CCCC(C)[C@H]1CCC2C3CC=C4CC(NCCCNC(=O)CCNC(=O)c5ccc(-c6c7cc(F)c(=O)cc-7oc7cc(O)c(F)cc67)c(C(=O)O)c5)CC[C@]4(C)C3CC[C@@]21C (stereo partly shown) [receptor 10]
Jurkat lymphocytes [4]; 1 μM, back exchange media 37° C., one-phase exponential decay
  recycling half-life: 2.8 ± 0.8 min
Jurkat lymphocytes [4]; additional/repeated wash steps with back-exchange media
  removal of receptor from the cell surface: > 90%
Jurkat lymphocytes [4]; four total wash steps with back-exchange media, 1 μM
  loss of total cellular fluorescence: 84%
Jurkat lymphocytes [4]; single wash with ice-cold back-exchange media, 1 μM
  loss of total cellular fluorescence: 44%

## AcNH-D-Phe-D-Ala-CO2H
[5]
  effect of soluble competitor on receptor-mediated ligand uptake: blocked

## D-Phe-D-Ala [D-Phe-D-Ala dipeptide]
[6]
  Kd: ~7 µM

Reference: patent publication US7947647B2, “Synthetic mimics of mammalian cell surface receptors: method and compositions” (The Penn State Research Foundation, priority 2004, dated 2011)
